Experimental data: patent US5086053A, “Derivatives of 1,3,4-thiadiazole, a method of obtaining them and pharmaceutical compositions containing them” (Sanofi, priority 1988, dated 1992)
pIC50: −log10 of the molar value. Where a name gives a salt, the structure may show the parent alone.

Molecular target: T1, type M1 muscarinic cholinergic receptor (Rattus norvegicus, UniProt P08482)
T1 sequence (P08482 1-460): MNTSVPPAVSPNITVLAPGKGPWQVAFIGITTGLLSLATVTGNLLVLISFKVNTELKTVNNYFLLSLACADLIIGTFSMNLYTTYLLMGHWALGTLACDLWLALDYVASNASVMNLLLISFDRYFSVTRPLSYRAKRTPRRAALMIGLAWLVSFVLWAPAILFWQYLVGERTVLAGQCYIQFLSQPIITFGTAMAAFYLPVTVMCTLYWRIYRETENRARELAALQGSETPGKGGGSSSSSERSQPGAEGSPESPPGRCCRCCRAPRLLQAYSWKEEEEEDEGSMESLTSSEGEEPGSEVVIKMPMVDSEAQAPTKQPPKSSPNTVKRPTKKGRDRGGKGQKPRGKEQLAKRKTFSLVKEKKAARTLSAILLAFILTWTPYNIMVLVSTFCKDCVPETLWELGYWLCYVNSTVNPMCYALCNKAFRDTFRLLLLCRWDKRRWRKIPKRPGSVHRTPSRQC
Experiment: biochemical
Assay type: binding
Conditions: not given

| SMILES | pIC50 |
| --- | --- |
| CN1CCC(N(C)c2nnc(-c3ccccc3)s2)CC1 [SR 44828 A, Dihydrochloride and hydrate of 2-[N-methyl N-(1-methyl 4-piperidyl)amino-5-phenyl-1,3,4-thiadiazole] | 5.05 |

Same assay, conditions: displacement of 3H-PZ, rat hippocampus homogenate, 4° C., 2 hours; read-out: IC50 3H-PZ (M1)

| SMILES | pIC50 |
| --- | --- |
| Clc1ccc(-c2nnc(NCCCN3CCCC3)s2)c(Cl)c1 [SR 45458 A] | 6.10 |
| Cc1cc(C)c(-c2nnc(NCCCN(C)C)s2)c(C)c1Br [SR 45340 A] | 5.46 |
| CCN(CC)CCCCNc1nnc(-c2ccccc2)s1 [SR 45339 A, Dihydrochloride of 2-(4-diethylaminobutylamino)-5-phenyl-1,3,4-thiadiazole] | 5.30 |
| Cc1cc(C)c(-c2nnc(NCCCN(C)C)s2)c(C)c1.Cl.Cl [SR 45341 A, 2-(3-dimethylaminopropylamino)-5-(2,4,6-trimethylphenyl)-1,3,4 thiadiazole dihydrochloride] | 6.35 |
| CN(C)CCCNc1nnc(-c2ccc(Cl)cc2Cl)s1 [SR 45422 A] | 6.15 |
| CCN(CC)CCCNc1nnc(-c2c(C)cc(C)cc2C)s1 [SR 45352 A] | 5.26 |
| CNCCCNc1nnc(-c2c(C)cc(C)cc2C)s1.Cl.Cl [SR 45418 A, 2-(3-methylaminopropylamino) 5-(2,4,6-trimethylphenyl) 1,3,4-thiadiazole dihydrochloride] | 4.70 |
| CNCCCNc1nnc(-c2ccc(Cl)cc2Cl)s1 [SR 45479 A] | 4.85 |
| CN(C)CCCNc1nnc(-c2ccccc2)s1 [SR 44824 A] | 5.52 |

The remaining lines, values ahead:

| pIC50 | SMILES |
| --- | --- |
| 5.35 | CN(C)CCCNc1nnc(-c2ccc(Cl)cc2)s1 [SR 45480 A] |
| 5.44 | CN1CCN(CCCNc2nnc(-c3ccc(Cl)cc3)s2)CC1 [SR 45489 A] |
| 5.52 | Clc1ccc(-c2nnc(NCCCn3ccnc3)s2)c(Cl)c1 [SR 45504 A] |
| 5.35 | Clc1ccc(-c2nnc(NCCCN3CCOCC3)s2)cc1 [SR 45520 A] |
| 5.62 | CCN(CCCN(C)C)c1nnc(-c2ccc(F)cc2)s1 [SR 45483 A] |

Same assay, conditions: values correspond to IC50 3H-NMS (M2) / IC50 3H-PZ (M1)

| SMILES | ratio R between the IC50 for receptors M1 and M2 (selectivity) |
| --- | --- |
| Clc1ccc(-c2nnc(NCCCN3CCCC3)s2)c(Cl)c1 [SR 45458 A] | 15 |
| Cc1cc(C)c(-c2nnc(NCCCN(C)C)s2)c(C)c1Br [SR 45340 A] | 6 |
| CCN(CC)CCCCNc1nnc(-c2ccccc2)s1 [SR 45339 A, Dihydrochloride of 2-(4-diethylaminobutylamino)-5-phenyl-1,3,4-thiadiazole] | 7 |
| Cc1cc(C)c(-c2nnc(NCCCN(C)C)s2)c(C)c1.Cl.Cl [SR 45341 A, 2-(3-dimethylaminopropylamino)-5-(2,4,6-trimethylphenyl)-1,3,4 thiadiazole dihydrochloride] | 160 |
| CN(C)CCCNc1nnc(-c2ccc(Cl)cc2Cl)s1 [SR 45422 A] | 37 |
| CCN(CC)CCCNc1nnc(-c2c(C)cc(C)cc2C)s1 [SR 45352 A] | 5 |
| CNCCCNc1nnc(-c2c(C)cc(C)cc2C)s1.Cl.Cl [SR 45418 A, 2-(3-methylaminopropylamino) 5-(2,4,6-trimethylphenyl) 1,3,4-thiadiazole dihydrochloride] | > 5 |
| CNCCCNc1nnc(-c2ccc(Cl)cc2Cl)s1 [SR 45479 A] | 5 |
| CN(C)CCCNc1nnc(-c2ccccc2)s1 [SR 44824 A] | > 30 |

Now from value to molecule:

| ratio R between the IC50 for receptors M1 and M2 (selectivity) | SMILES |
| --- | --- |
| 11 | CN(C)CCCNc1nnc(-c2ccc(Cl)cc2)s1 [SR 45480 A] |
| 7 | CN1CCN(CCCNc2nnc(-c3ccc(Cl)cc3)s2)CC1 [SR 45489 A] |
| 13 | Clc1ccc(-c2nnc(NCCCn3ccnc3)s2)c(Cl)c1 [SR 45504 A] |
| 17 | Clc1ccc(-c2nnc(NCCCN3CCOCC3)s2)cc1 [SR 45520 A] |
| 8 | CCN(CCCN(C)C)c1nnc(-c2ccc(F)cc2)s1 [SR 45483 A] |

Molecular target: T2, type M2 muscarinic cholinergic receptor (Cavia porcellus, UniProt H0VRN8)
T2 construct: studies in vitro on homogenized smooth muscle of guinea-pig ileum; from tissue; host or cells: guinea-pig ileum smooth muscle homogenate
T2 sequence (H0VRN8 1-466): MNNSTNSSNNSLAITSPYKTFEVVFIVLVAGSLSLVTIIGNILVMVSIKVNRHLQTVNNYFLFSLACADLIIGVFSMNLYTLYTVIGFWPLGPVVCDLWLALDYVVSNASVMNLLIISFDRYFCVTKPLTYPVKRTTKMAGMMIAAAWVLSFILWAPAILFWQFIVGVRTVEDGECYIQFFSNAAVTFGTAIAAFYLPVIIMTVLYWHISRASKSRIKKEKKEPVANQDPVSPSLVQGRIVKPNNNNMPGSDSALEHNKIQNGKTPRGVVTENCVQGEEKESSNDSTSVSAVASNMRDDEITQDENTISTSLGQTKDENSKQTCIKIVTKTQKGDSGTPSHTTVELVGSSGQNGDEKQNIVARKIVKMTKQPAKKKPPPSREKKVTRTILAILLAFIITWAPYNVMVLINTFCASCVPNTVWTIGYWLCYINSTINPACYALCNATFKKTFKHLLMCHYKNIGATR
Experiment: Affinity for type M2 muscarinic cholinergic receptor: displacement of tritiated N-methylscopolamine (3H-NMS) on homogenized smooth muscle of guinea-pig ileum
Assay type: binding
Conditions: displacement of 3H-NMS, 30° C., 20 minutes
Text: BIOCHEMICAL STUDY IN VITRO
M1 type receptors are concentrated in certain zones of the brain such as the hippocampus, the cerebral cortex, the corpus striatum and the sympathetic ganglia. These connection sites can be selectively tagged with tritiated pirenzepine (^3 H--PZ). Type M2 receptors predominate in the heart and the ileum and can be tagged with tritiated N-methylscopolamine (^3 H--NMS). In order to determine the selectivity of the products according to the invention, with regard to sites M1 and M2, a study was made of their interaction in vitro, with high-affinity tagging with ^3 H--PZ and ^3 H--NMS, on rat hippocampus membranes and smooth muscle from guinea-pig ileum respectively.
b) Search for an affinity for the type M2 muscarinic cholinergic receptor
Interaction with type M2 muscarinic receptors was studies in vitro on homogenized smooth muscle of guinea-pig ileum by measuring the displacement of tritiated N-methyl-scopolamine from its specific tagging sites. 50 μl portions of homogenized smooth muscle form guinea-pig ileum (0.625% w/v) in 20 mM of HEPES buffer: 2-((2-hydroxy 4-ethyl) piperazin-1-yl) ethanesulphonic acid containing NaCl (100 mM) and Mg Cl2 (10 mM) (final pH=7.5) were incubated at 30° C. for 20 minutes int eh presence of ^3 H--NMS (85 Ci/mmol/0.3 nM final) with increasing concentrations of the products under test. The final volume was 1 ml. The reaction was stopped by centrifuging for 5 minutes at 15000 g. Non-specific tagging was determined in the presence of […] of atropine sulphate.
The results are expressed as 50% inhibiting concentrations (IC50), i.e. the concentration (in μM) which induces a 50% displacement of the tritiated ligand fixed to the membrane receptors. The IC50 displacement of ^3 H--PZ represents affinity for the M1 receptor, and
The IC50 displacement of ^3 H--NMS represents affinity for the M2 receptor.

| SMILES | pIC50 |
| --- | --- |
| Clc1ccc(-c2nnc(NCCCN3CCCC3)s2)c(Cl)c1 [SR 45458 A] | 4.92 |
| Cc1cc(C)c(-c2nnc(NCCCN(C)C)s2)c(C)c1Br [SR 45340 A] | 4.57 |
| CCN(CC)CCCCNc1nnc(-c2ccccc2)s1 [SR 45339 A, Dihydrochloride of 2-(4-diethylaminobutylamino)-5-phenyl-1,3,4-thiadiazole] | 4.47 |
| Cc1cc(C)c(-c2nnc(NCCCN(C)C)s2)c(C)c1.Cl.Cl [SR 45341 A, 2-(3-dimethylaminopropylamino)-5-(2,4,6-trimethylphenyl)-1,3,4 thiadiazole dihydrochloride] | 4.14 |
| CN(C)CCCNc1nnc(-c2ccc(Cl)cc2Cl)s1 [SR 45422 A] | 4.59 |
| CCN(CC)CCCNc1nnc(-c2c(C)cc(C)cc2C)s1 [SR 45352 A] | 4.52 |
| CNCCCNc1nnc(-c2c(C)cc(C)cc2C)s1.Cl.Cl [SR 45418 A, 2-(3-methylaminopropylamino) 5-(2,4,6-trimethylphenyl) 1,3,4-thiadiazole dihydrochloride] | < 4.00 |
| CNCCCNc1nnc(-c2ccc(Cl)cc2Cl)s1 [SR 45479 A] | 4.15 |
| CN(C)CCCNc1nnc(-c2ccccc2)s1 [SR 44824 A] | < 4.00 |

Next, values leading:

| pIC50 | SMILES |
| --- | --- |
| 4.30 | CN(C)CCCNc1nnc(-c2ccc(Cl)cc2)s1 [SR 45480 A] |
| 4.59 | CN1CCN(CCCNc2nnc(-c3ccc(Cl)cc3)s2)CC1 [SR 45489 A] |
| 4.40 | Clc1ccc(-c2nnc(NCCCn3ccnc3)s2)c(Cl)c1 [SR 45504 A] |
| 4.10 | Clc1ccc(-c2nnc(NCCCN3CCOCC3)s2)cc1 [SR 45520 A] |
| 4.70 | CCN(CCCN(C)C)c1nnc(-c2ccc(F)cc2)s1 [SR 45483 A] |

System: M1 central muscarinic cholinergic receptors
Experiment: Antagonism to rotatory behaviour induced by intrastriatal injection of pirenzepine in the mouse
Assay type: in vivo, mouse (female, Swiss, CD 1)
Conditions: Mus musculus, po, 4 h, read-out: % inhibition of pirenzepine-induced rotations
Protocol: Intrastriatal injection of PZ into the mouse induces rotatory behaviour. Antagonism to this behaviour by the products according to the invention was studied.
The products according to the invention were administered in doses of 0.3 or 3 mg/kg orally after being solubilized in distilled water or suspended in a 5% solution of gum arabic. The controls were given pure solvent under the same conditions.
The animals used were female mice (Swiss, CD 1, Charles River, France), body weight between 25 and 30 grams.
Pirenzepine was dissolved in a phosphate buffer, the pH of the solution being 6.
The products under study or solvents thereof were orally administered, using a probang, in a volume of 0.4 ml per 20 g body weight.
The number of contralateral rotations (in the opposite direction to the side of the injection) was counted for three 2-minute periods after injection of pirenzepine (minutes 2-4, 8-10 and 13-15) and was then totalled for each animal. Each treatment comprised three to four doses and ten animals per dose. For each treatment, the total number of rotations and the percentage inhibition relative to the control batch (solvent) was calculated.

| SMILES | change in vivo at 3 mg/kg |
| --- | --- |
| CN1CCC(N(C)c2nnc(-c3ccccc3)s2)CC1 [SR 44828 A, Dihydrochloride and hydrate of 2-[N-methyl N-(1-methyl 4-piperidyl)amino-5-phenyl-1,3,4-thiadiazole] | -26% |

Same assay, conditions: Mus musculus, po; 3 mg/kg p.o., 4 hours before pirenzepine 1 μg intrastriatal; *p<0.05, **p<0.01 Student's test; read-out: % inhibition of pirenzepine-induced rotations

| SMILES | change in vivo at 3 mg/kg |
| --- | --- |
| Clc1ccc(-c2nnc(NCCCN3CCCC3)s2)c(Cl)c1 [SR 45458 A] | -28% |
| Cc1cc(C)c(-c2nnc(NCCCN(C)C)s2)c(C)c1Br [SR 45340 A] | -95% |
| CCN(CC)CCCCNc1nnc(-c2ccccc2)s1 [SR 45339 A, Dihydrochloride of 2-(4-diethylaminobutylamino)-5-phenyl-1,3,4-thiadiazole] | -77% |
| Cc1cc(C)c(-c2nnc(NCCCN(C)C)s2)c(C)c1.Cl.Cl [SR 45341 A, 2-(3-dimethylaminopropylamino)-5-(2,4,6-trimethylphenyl)-1,3,4 thiadiazole dihydrochloride] | -74% |
| CN(C)CCCNc1nnc(-c2ccc(Cl)cc2)s1 [SR 45480 A] | -54% |
| CN1CCN(CCCNc2nnc(-c3ccc(Cl)cc3)s2)CC1 [SR 45489 A] | -29% |
| CN(C)CCCNc1nnc(-c2ccc(Cl)cc2Cl)s1 [SR 45422 A] | -50% |
| Clc1ccc(-c2nnc(NCCCN3CCOCC3)s2)cc1 [SR 45520 A] | -75% |
| CCN(CC)CCCNc1nnc(-c2c(C)cc(C)cc2C)s1 [SR 45352 A] | -32% |
| CNCCCNc1nnc(-c2c(C)cc(C)cc2C)s1.Cl.Cl [SR 45418 A, 2-(3-methylaminopropylamino) 5-(2,4,6-trimethylphenyl) 1,3,4-thiadiazole dihydrochloride] | -77% |
| CCN(CCCN(C)C)c1nnc(-c2ccc(F)cc2)s1 [SR 45483 A] | -20% |
| CN(C)CCCNc1nnc(-c2ccccc2)s1 [SR 44824 A] | -27% |

System: not listed separately
Experiment: Acute oral toxicity in mice
Parameters: species or system Swiss, CD 1)
Conditions: mouse, in vivo, female mice, 24 hours after administration, read-out: 50% lethal dose (DL50)
Protocol: The acute toxicity was determined for one product according to the invention: SR 45341 A. The product was orally administered in increasing doses to a batch of 10 female mice (Swiss, CD 1, Charles River, France), body weight 20 g.
The death rate caused by the product under study was noted during the 24 hours after administration of the product. The 50% lethal dose (DL50) was determined, i.e. the dose which killed 50% of the animals.

| SMILES | LD50 at 24 h |
| --- | --- |
| Cc1cc(C)c(-c2nnc(NCCCN(C)C)s2)c(C)c1.Cl.Cl [SR 45341 A, 2-(3-dimethylaminopropylamino)-5-(2,4,6-trimethylphenyl)-1,3,4 thiadiazole dihydrochloride] | > 300 mg/kg |
